# Reference: patent US20220324835A1 (Nurix Therapeutics, Inc., priority 2018, published 2022)
# Like-named read-outs stand apart in the source and are kept apart here.
# Assays:
# [1] = system: T-cells; assay: In vivo activity: CD25 expression on CD4+ or CD8+ T-cells of mice stimulated with anti-CD3 antibody; conditions: 2 μg anti-CD3 antibody, 24 hours
# Summary of the method: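 C57BL/6 or BALB/c mice dosed with inhibitor (IV, IP, SC or PO, e.g. BID or TID), then stimulated with 2 μg anti-CD3 antibody. Plasma IL-2, IFNγ, TNFα at 8 h and CD25 on CD4+/CD8+ T-cells by flow cytometry at 24 h; fold change over vehicle plus anti-CD3, binned A–E.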
# [2] = system: primary human NK cells; assay: NK cell activation assessed by cytokine secretion (coculture with K562 NucRed target cells); type: cell-based; conditions: for fold induction at 0.625 µM: 0.625 μM compound; for fold induction at 2.5 µM: 2.5 μM compound
# Summary of the method: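 Primary NK cells from donor PBMC, IL-2 (60 ng/mL) overnight, then Cbl-b inhibitor (e.g. 10, 1 or 0.1 μM; DMSO <0.1%) for 1 h before 6 h coculture with K562 NucRed at effector:target ratios such as 5:1, 1:1 or 1:5. Supernatant IFNγ, TNFα, MIP1β measured by ELISA or Luminex; fold change over inhibitor-free baseline, >2.0-fold positive.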
# [3] = system: T-cell; assay: CD25 cell surface staining on T-cells stimulated with anti-CD3 antibody alone (Biological Example 2); type: cell-based; conditions: primary human total T-cells, baseline = anti-CD3/anti-CD28 stimulated cells without inhibitor, read-out: CD25 staining, Anti-CD3 stimulation, fold change over baseline; for fold induction at 1 µM: 1 μM compound; for fold induction at 8 µM: 8 μM compound
# [4] = system: T-cell; assay: IL-2 secretion from T-cells stimulated with anti-CD3 antibody alone (Biological Example 2); type: cell-based; conditions: primary human total T-cells, read-out: IL-2 secretion, Anti-CD3 stimulation, fold change over baseline; for fold induction at 1 µM: 1 μM compound; for fold induction at 8 µM: 8 μM compound
# [5] = K562, 1:1 E/T, read-out: IFNγ secretion
# [6] = K562, 1:1 E/T, read-out: MIP1β secretion
# [7] = K562, 1:1 E/T, read-out: TNFα secretion
# [8] = K562, 1:1 E/T, 10 μM, read-out: IFNγ secretion
# [9] = K562, 1:1 E/T, 10 μM, read-out: MIP1β secretion
# [10] = K562, 1:1 E/T, 10 μM, read-out: TNFα secretion
# [11] = K562, 5:1 E/T, read-out: IFNγ secretion
# [12] = K562, 5:1 E/T, read-out: MIP1β secretion
# [13] = K562, 5:1 E/T, read-out: TNFα secretion
# [14] = K562, 5:1 E/T, 10 μM, read-out: IFNγ secretion
# [15] = K562, 5:1 E/T, 10 μM, read-out: MIP1β secretion
# [16] = K562, 5:1 E/T, 10 μM, read-out: TNFα secretion
# [17] = K562, NK cells cocultured with K562 NucRed, 1:1 E/T, read-out: IFNγ secretion, fold change over baseline
# [18] = K562, NK cells cocultured with K562 NucRed, 1:1 E/T, read-out: TNFα secretion, fold change over baseline
# [19] = K562, NK cells cocultured with K562 NucRed, 1:1 E/T, 10 μM compound, read-out: IFNγ secretion, fold change over baseline
# [20] = K562, NK cells cocultured with K562 NucRed, 1:1 E/T, 10 μM compound, read-out: TNFα secretion, fold change over baseline
SMILES,"fold induction at 0.625 µM [2, 17]","fold induction at 0.625 µM [2, 18]","fold induction at 2.5 µM [2, 17]","fold induction at 2.5 µM [2, 18]","fold induction at 10 µM [2, 19]","fold induction at 10 µM [2, 20]",other results
"C[C@H](Cc1nncn1C)c1cccc(NC(=O)c2ccnc(C(F)(F)F)n2)c1 [Compound 187, (R)-N-(3-(1-(4-methyl-4H-1,2,4-triazol-3-yl)propan-2-yl)phenyl)-2-(trifluoromethyl)pyrimidine-4-carboxamide]",–,–,–,–,–,–,"CD4+ T-cell % CD25+ ([1]; 90 mpk IP BID): C (C indicates 1.51-2.00); CD8+ T-cell % CD25+ ([1]; 90 mpk IP BID): D (D indicates 1.00-1.50); fold induction at 1 µM [2, 5]: 1.01 to 2; fold induction at 1 µM [2, 6]: 1.01 to 2; fold induction at 1 µM [2, 7]: < 1; fold induction at 10 µM [2, 8]: 2.01 to 5; fold induction at 10 µM [2, 9]: 2.01 to 5; fold induction at 10 µM [2, 10]: 2.01 to 5; fold induction at 1 µM [2, 11]: 2.01 to 5; fold induction at 1 µM [2, 12]: 1.01 to 2; fold induction at 1 µM [2, 13]: 2.01 to 5; fold induction at 10 µM [2, 14]: > 5; fold induction at 10 µM [2, 15]: 2.01 to 5; fold induction at 10 µM [2, 16]: > 5"
"Cn1cnnc1C(F)(F)[C@](C)(F)c1cccc(N2Cc3c(cccc3C(F)(F)F)C2=O)c1 [Compound 296a, (R)-2-(3-(1,1,2-trifluoro-1-(4-methyl-4H-1,2,4-triazol-3-yl)propan-2-yl)phenyl)-4-(trifluoromethyl)isoindolin-1-one]",–,–,–,–,–,–,"fold induction at 1 µM [2, 5]: 1.01 to 2; fold induction at 1 µM [2, 6]: < 1; fold induction at 1 µM [2, 7]: < 1; fold induction at 10 µM [2, 8]: 2.01 to 5; fold induction at 10 µM [2, 9]: < 1; fold induction at 10 µM [2, 10]: 1.01 to 2; fold induction at 1 µM [2, 11]: < 1; fold induction at 1 µM [2, 12]: < 1; fold induction at 1 µM [2, 13]: < 1; fold induction at 10 µM [2, 14]: 1.01 to 2; fold induction at 10 µM [2, 15]: < 1; fold induction at 10 µM [2, 16]: < 1"
"C[C@H](Cc1nncn1C)c1cccc(NC(=O)c2nc(C(F)(F)F)c[nH]2)c1 [Compound 326, (R)-N-(3-(1-(4-methyl-4H-1,2,4-triazol-3-yl)propan-2-yl)phenyl)-4-(trifluoromethyl)-1H-imidazole-2-carboxamide]",1.01 to 2,1.01 to 2,2.01 to 5,2.01 to 5,2.01 to 5,2.01 to 5,–
"CNCc1ccc(C(=O)Nc2cccc([C@H](C)Cc3nncn3C)c2)nc1C1CC1 [Compound 376, (R)-6-cyclopropyl-N-(3-(1-(4-methyl-4H-1,2,4-triazol-3-yl)propan-2-yl)phenyl)-5-((methylamino)methyl)picolinamide]",1.01 to 2,1.01 to 2,1.01 to 2,1.01 to 2,2.01 to 5,2.01 to 5,fold induction at 1 µM [3]: 0.801 to 1; fold induction at 8 µM [3]: > 1; fold induction at 1 µM [4]: 0.101 to 0.15; fold induction at 8 µM [4]: > 0.201
"C[C@H](Cc1nncn1C)c1ccnc(NC(=O)c2cccc(C(F)(F)F)n2)c1 [Compound 302, (R)-N-(4-(1-(4-methyl-4H-1,2,4-triazol-3-yl)propan-2-yl)pyridin-2-yl)-6-(trifluoromethyl)picolinamide]",< 1,1.01 to 2,1.01 to 2,1.01 to 2,2.01 to 5,1.01 to 2,–
"Cn1cnnc1[C@@H]1C[C@@H]1c1cccc(N2Cc3c(cccc3C(F)(F)F)C2=O)c1 [Compound 282, 2-(3-((1S,2R)-2-(4-methyl-4H-1,2,4-triazol-3-yl)cyclopropyl)phenyl)-4-(trifluoromethyl)isoindolin-1-one]",1.01 to 2,1.01 to 2,1.01 to 2,1.01 to 2,2.01 to 5,2.01 to 5,CD4+ T-cell % CD25+ ([1]; 90 mpk PO BID): D (D indicates 1.00-1.50); CD8+ T-cell % CD25+ ([1]; 90 mpk PO BID): D (D indicates 1.00-1.50); CD4+ T-cell % CD25+ ([1]; 135 mpk PO BID): C (C indicates 1.51-2.00); CD8+ T-cell % CD25+ ([1]; 135 mpk PO BID): D (D indicates 1.00-1.50); CD4+ T-cell % CD25+ ([1]; 180 mpk PO BID): B (B indicates 2.01-2.50); CD8+ T-cell % CD25+ ([1]; 180 mpk PO BID): D (D indicates 1.00-1.50)
"C[C@H](Cc1nncn1C)c1cccc(N2Cc3c(ccnc3C3CC3)C2=O)c1 [Compound 257, 4-cyclopropyl-2-[3-[(1R)-1-methyl-2-(4-methyl-1,2,4-triazol-3-yl)ethyl]phenyl]-3H-pyrrolo[3,4-c]pyridin-1-one]",1.01 to 2,1.01 to 2,2.01 to 5,1.01 to 2,2.01 to 5,2.01 to 5,–
"Cc1cc2c(c(C3CC3)n1)CN(c1cccc([C@H](C)Cc3nncn3C)c1)C2=O [Compound 372, 4-cyclopropyl-6-methyl-2-{3-[(2R)-1-(4-methyl-4H-1,2,4-triazol-3-yl)propan-2-yl]phenyl}-1H,2H,3H-pyrrolo[3,4-c]pyridin-1-one]",1.01 to 2,< 1,1.01 to 2,< 1,2.01 to 5,1.01 to 2,fold induction at 1 µM [3]: 0.601 to 0.8; fold induction at 8 µM [3]: 0.801 to 1; fold induction at 1 µM [4]: 0.051 to 0.1; fold induction at 8 µM [4]: 0.101 to 0.15
"Cn1cnnc1[C@@H]1C[C@@H]1c1cccc(N2Cc3c(ccnc3C(F)(F)F)C2=O)c1 [Compound 369, 2-{3-[(1S,2R)-2-(4-methyl-4H-1,2,4-triazol-3-yl)cyclopropyl]phenyl}-4-(trifluoromethyl)-1H,2H,3H-pyrrolo[3,4-c]pyridin-1-one]",< 1,< 1,1.01 to 2,< 1,2.01 to 5,1.01 to 2,fold induction at 1 µM [3]: 0.601 to 0.8; fold induction at 8 µM [3]: 0.801 to 1; fold induction at 1 µM [4]: 0.051 to 0.1; fold induction at 8 µM [4]: 0.101 to 0.15
"C[C@H](Sc1nncn1C)c1cccc(NC(=O)c2cc(C(=O)N3CC[C@H](O)C3)ccn2)c1 [Compound 140, 4-[[(3S)-3-hydroxypyrrolidin-1-yl]carbonyl]-N-[3-[(1S)-1-[(4-methyl-4H-1,2,4-triazol-3-yl)sulfanyl]ethyl]phenyl]pyridine-2-carboxamide]",< 1,< 1,< 1,< 1,1.01 to 2,< 1,–
"C[C@H](Cc1nncn1C)c1cccc(NC(=O)c2cccc(CCO)n2)c1 [Compound 202, 6-(2-hydroxyethyl)-N-[3-[(2R)-1-(4-methyl-4H-1,2,4-triazol-3-yl)propan-2-yl]phenyl]pyridine-2-carboxamide]",1.01 to 2,< 1,1.01 to 2,1.01 to 2,2.01 to 5,1.01 to 2,–
